Test results: patent US9995734B2, “Human T cell line assay for evaluating the immunologic identity of glatiramer acetate preparations” (Mylan Inc., priority 2013, dated 2018)

Columns and labels:
Donor 3 COP T-Cell Lines = experiment: ATP proliferation assay (CellTiter Glo), Donor 3 COP T-cell lines, incl. reactivity to non-canonical GA peptides; assay type: cell-based, human; details: for Reactivity (proliferation), Mean: Day 54 of culture
Donor 4 COP T-Cell Lines = experiment: ATP proliferation assay (CellTiter Glo), Donor 4 COP T-cell lines, incl. reactivity to non-canonical GA peptides; assay type: cell-based, human; details: for response to GMA in comparison to COP: 205-1F4, 10 μg/mL dose; for Mean, ATP proliferation assay: Cell Line 205-1F4; for Proliferation (luminescent ATP assay), Mean: T-cell line 205-1F4, autologous B-LCL; for Reactivity (proliferation), Mean: T-cell line 205-1H3, 0 μg/mL 4121.0

In the case of glatiramer acetate [GMA], the “Reactivity (proliferation), Mean” value (Donor 3 COP T-Cell Lines; T-cell line 165-E3C, 3 μg/mL antigen, No Antigen 2797) was 17065 RLU, the “Mean, ATP proliferation assay” value (Donor 3 COP T-Cell Lines; T-cell line 165-E3C, 3 μg/mL, Day 46, after 3 days) was 35044 RLU and the “Reactivity (proliferation), Mean” value (Donor 3 COP T-Cell Lines; T-cell line 165-E3C, 10 μg/mL antigen, No Antigen 2797) was 37602 RLU. For the same substance, the “Mean, ATP proliferation assay” value (Donor 3 COP T-Cell Lines; T-cell line 165-E3C, 10 μg/mL, Day 46, after 3 days) was 68577 RLU, the “Reactivity (proliferation), Mean” value (Donor 3 COP T-Cell Lines; T-cell line 165-E3C, 100 μg/mL antigen, No Antigen 2797) was 23437 RLU and the “Mean, ATP proliferation assay” value (Donor 3 COP T-Cell Lines; T-cell line 165-E3C, Day 32, 10 μg/mL) was 3723 RLU. The “Reactivity (proliferation), Mean” value (Donor 3 COP T-Cell Lines; T-cell line 165-F3C, 1 μg/mL antigen, No Antigen 3150) was 9423 RLU, the “Proliferation (luminescent ATP assay), Mean” value (Donor 3 COP T-Cell Lines; T-cell line 165-F3C, 1 μg/mL antigen, Day 77 of culture, 0 μg/mL 1563) was 7277 and the “Mean, ATP proliferation assay” value (Donor 3 COP T-Cell Lines; T-cell line 165-F3C, 1 μg/mL, Day 46, after 3 days) was 45592 RLU. For the same substance, the “Reactivity (proliferation), Mean” value (Donor 3 COP T-Cell Lines; T-cell line 165-F3C, 3 μg/mL antigen, No Antigen 3150) was 37555 RLU, the “Proliferation (luminescent ATP assay), Mean” value (Donor 3 COP T-Cell Lines; T-cell line 165-F3C, 3 μg/mL antigen, Day 77 of culture, 0 μg/mL 1563) was 50400 and the “Mean, ATP proliferation assay” value (Donor 3 COP T-Cell Lines; T-cell line 165-F3C, 3 μg/mL, Day 46, after 3 days) was 101328 RLU. The “Reactivity (proliferation), Mean” value (Donor 3 COP T-Cell Lines; T-cell line 165-F3C, 10 μg/mL antigen, No Antigen 3150) was 44621 RLU, the “Proliferation (luminescent ATP assay), Mean” value (Donor 3 COP T-Cell Lines; T-cell line 165-F3C, 10 μg/mL antigen, Day 77 of culture, 0 μg/mL 1563) was 70563 and the “Mean, ATP proliferation assay” value (Donor 3 COP T-Cell Lines; T-cell line 165-F3C, 10 μg/mL, Day 46, after 3 days) was 84268 RLU. The “Reactivity (proliferation), Mean” value (Donor 3 COP T-Cell Lines; T-cell line 165-F3C, 100 μg/mL antigen, No Antigen 3150) was 12391 RLU, the “Mean, ATP proliferation assay” value (Donor 3 COP T-Cell Lines; T-cell line 165-F3C, Day 32, 10 μg/mL) was 1257 RLU and the “Reactivity (proliferation), Mean” value (Donor 3 COP T-Cell Lines; T-cell line 165-F6C, 1 μg/mL antigen, No Antigen 2189) was 15671 RLU. The “Mean, ATP proliferation assay” value (Donor 3 COP T-Cell Lines; T-cell line 165-F6C, 1 μg/mL, Day 46, after 3 days) was 18511 RLU, the “Proliferation (luminescent ATP assay), Mean” value (Donor 3 COP T-Cell Lines; T-cell line 165-F6C, 1.25 μg/mL antigen, Day 76 of culture, No Antigen value 517) was 629 and the “Proliferation (luminescent ATP assay), Mean” value (Donor 3 COP T-Cell Lines; T-cell line 165-F6C, 2.5 μg/mL antigen, Day 76 of culture, No Antigen value 517) was 3,197. The “Reactivity (proliferation), Mean” value (Donor 3 COP T-Cell Lines; T-cell line 165-F6C, 3 μg/mL antigen, No Antigen 2189) was 40274 RLU, the “Mean, ATP proliferation assay” value (Donor 3 COP T-Cell Lines; T-cell line 165-F6C, 3 μg/mL, Day 46, after 3 days) was 43634 RLU and the “Proliferation (luminescent ATP assay), Mean” value (Donor 3 COP T-Cell Lines; T-cell line 165-F6C, 5 μg/mL antigen, Day 76 of culture, No Antigen value 517) was 11,867. The “Reactivity (proliferation), Mean” value (Donor 3 COP T-Cell Lines; T-cell line 165-F6C, 10 μg/mL antigen, No Antigen 2189) was 38921 RLU, the “Proliferation (luminescent ATP assay), Mean” value (Donor 3 COP T-Cell Lines; T-cell line 165-F6C, 10 μg/mL antigen, Day 76 of culture, No Antigen value 517) was 20,141 and the “Mean, ATP proliferation assay” value (Donor 3 COP T-Cell Lines; T-cell line 165-F6C, 10 μg/mL, Day 46, after 3 days) was 34321 RLU. For the same substance, the “Reactivity (proliferation), Mean” value (Donor 3 COP T-Cell Lines; T-cell line 165-F6C, 100 μg/mL antigen, No Antigen 2189) was 3690 RLU, the “Mean, ATP proliferation assay” value (Donor 3 COP T-Cell Lines; T-cell line 165-F6C, Day 32, 10 μg/mL) was 1489 RLU and the “response in proliferation assay” value (Donor 3 COP T-Cell Lines; all seven Donor 3 COP T-cell lines tested, Day 54) was “responded well”. For the same substance, the “reactivity in confirmatory ATP proliferation assay” value (Donor 3 COP T-Cell Lines; six Donor 3 COP lines, Day 32, 10 μg/mL (Table 23)) was “showed reactivity”, the “response to GMA in comparison to COP” value (Donor 4 COP T-Cell Lines; Day 50 (Table 27)) was 102.7% and the “response to GMA in comparison to COP” value (Donor 4 COP T-Cell Lines; Day 58 (Table 28)) was 98.5%. For the same substance, the “response to GMA in comparison to COP” value (Donor 4 COP T-Cell Lines; Day 71) was 101.3%, the “Mean, ATP proliferation assay” value (Donor 4 COP T-Cell Lines; Day 50, 1 μg/mL) was 17341 and the “Mean, ATP proliferation assay” value (Donor 4 COP T-Cell Lines; Day 50, 3 μg/mL) was 195335. The “Mean, ATP proliferation assay” value (Donor 4 COP T-Cell Lines; Day 50, 10 μg/mL) was 218954, the “Mean, ATP proliferation assay” value (Donor 4 COP T-Cell Lines; Day 58, 3 μg/mL) was 29921 and the “Mean, ATP proliferation assay” value (Donor 4 COP T-Cell Lines; Day 58, 10 μg/mL) was 30998. The “Mean, ATP proliferation assay” value (Donor 4 COP T-Cell Lines; Day 58, 30 μg/mL) was 33915, the “Mean, ATP proliferation assay” value (Donor 4 COP T-Cell Lines; Day 58, 100 μg/mL) was 32698 and the “Proliferation (luminescent ATP assay), Mean” value (Donor 4 COP T-Cell Lines; Day 71, 1 μg/mL antigen) was 17341. The “Proliferation (luminescent ATP assay), Mean” value (Donor 4 COP T-Cell Lines; Day 71, 3 μg/mL antigen) was 195335, the “Proliferation (luminescent ATP assay), Mean” value (Donor 4 COP T-Cell Lines; Day 71, 10 μg/mL antigen) was 218954 and the “Proliferation (luminescent ATP assay), Mean” value (Donor 4 COP T-Cell Lines; Day 80, 1 μg/mL antigen) was 7,477. For the same substance, the “Proliferation (luminescent ATP assay), Mean” value (Donor 4 COP T-Cell Lines; Day 80, 2 μg/mL antigen) was 64,999, the “Proliferation (luminescent ATP assay), Mean” value (Donor 4 COP T-Cell Lines; Day 80, 5 μg/mL antigen) was 83,107 and the “Proliferation (luminescent ATP assay), Mean” value (Donor 4 COP T-Cell Lines; Day 80, 10 μg/mL antigen) was 67,482. The “Reactivity (proliferation), Mean” value (Donor 4 COP T-Cell Lines; 1 μg/mL antigen) was 37654.3, the “Reactivity (proliferation), Mean” value (Donor 4 COP T-Cell Lines; 3 μg/mL antigen) was 55284.3 and the “Reactivity (proliferation), Mean” value (Donor 4 COP T-Cell Lines; 10 μg/mL antigen) was 60841.7.
